According to paper PMC8518537, “N‐(Anilinoethyl)amide Melatonergic Ligands with Improved Water Solubility and Metabolic Stability” (Chemmedchem, 2021):
Converted amounts (≈) assume the structure as drawn. Read-outs that look alike come from different tables or passages of the source.

How the values were obtained:
human MT1 receptors [1] = target: T1, human MT1 receptors (Homo sapiens, UniProt P48039); assay: Radioligand binding, 2-[125I]iodomelatonin competition at MT1; details: cloned human MT1 in CHO cells; from IC50 by Cheng-Prusoff; mean±SD of three determinations; read-out: MT1 K i
T1 sequence (P48039 whole entry): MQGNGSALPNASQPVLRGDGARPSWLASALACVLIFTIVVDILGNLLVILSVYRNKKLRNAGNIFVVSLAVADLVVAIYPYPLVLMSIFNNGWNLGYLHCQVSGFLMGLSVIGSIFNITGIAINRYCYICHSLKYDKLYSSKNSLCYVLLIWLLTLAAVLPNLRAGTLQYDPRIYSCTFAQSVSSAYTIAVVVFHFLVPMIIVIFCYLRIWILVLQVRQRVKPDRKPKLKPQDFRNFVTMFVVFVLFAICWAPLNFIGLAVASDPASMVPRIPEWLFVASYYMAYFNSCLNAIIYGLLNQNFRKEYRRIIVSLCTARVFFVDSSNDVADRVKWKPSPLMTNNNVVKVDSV
Method: (§3) After incubation, the % of radioligand binding inhibition was determined via a scintillation counting method. The radioligand binding experiments were performed in triplicate. IC50 values were determined by nonlinear regression analysis of the competition curves using Hill equation curve fitting. The pK i values were calculated from the IC50 values in accordance with the Cheng‐Prusoff equation.[28]

human MT2 receptors [2] = target: T2, human MT2 receptors (Homo sapiens, UniProt P49286); assay: Radioligand binding, 2-[125I]iodomelatonin competition at MT2; details: cloned human MT2 in CHO cells; from IC50 by Cheng-Prusoff; mean±SD of three determinations; read-out: MT2 K i
T2 sequence (P49286 1-362): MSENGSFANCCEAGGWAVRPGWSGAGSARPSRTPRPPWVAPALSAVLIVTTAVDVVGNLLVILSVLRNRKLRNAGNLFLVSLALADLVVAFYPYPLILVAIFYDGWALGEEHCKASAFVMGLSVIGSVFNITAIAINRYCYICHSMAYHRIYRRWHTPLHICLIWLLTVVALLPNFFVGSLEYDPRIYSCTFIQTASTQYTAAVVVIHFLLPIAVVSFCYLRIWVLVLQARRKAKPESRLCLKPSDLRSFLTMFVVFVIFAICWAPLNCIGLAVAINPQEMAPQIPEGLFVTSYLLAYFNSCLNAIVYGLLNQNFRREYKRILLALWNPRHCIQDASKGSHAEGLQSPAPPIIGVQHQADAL
Method: as §3

[3] = Thermodynamic solubility, shake flask method; assay type: physicochemical; details: thermodynamic from solid, room temperature overnight, mean±SD, triplicate
Method: Thermodynamic solubility values were measured in two different buffers (pH 1.0; pH 7.4) by the shake flask method.[65] 1 mg of each compound was placed in 1 mL of appropriate buffer and shaken at room temperature overnight. The resulting suspension was centrifuged (10 min, 10000 g, 20 °C) and the supernatant analyzed by HPLC‐UV. Solubility values were interpolated from calibration curves prepared from concentrated DMSO stock solutions of each compound. Reported solubility values are the mean of three measurements±standard deviation.
It consisted of a LC‐10ADvp solvent delivery module, a 20 μL Rheodyne sample injector (Rheodyne LLC, Rohnert Park, CA, USA) and a SPD‐10Avp UV‐VIS detector. PeakSimple 2.83 software was employed for data acquisition and HPLC peak integration. […] Elution conditions were optimized for each compound at a flow rate of 1 mL min^−1 employing mobile phases consisting of water and acetonitrile at different percentages, while UV detection was set at λ = 254 nm.

[4] = Metabolic stability in rat liver microsomes; assay type: in vitro ADME; details: for CLi Rat LM (intrinsic clearance) / half-life at 5 μM: rat liver microsomes 1 mg protein/mL, 5 μM compound, mean±SD; for CLi Rat LM (intrinsic clearance): 37 °C; for half-life at 5 μM: NADPH-regenerating system, pH 7.4, 37 °C, read-out: t 1/2 Rat LM
Method: (§4) Each compound (final concentration: 5 μM) was incubated in the presence of rat or human liver microsomes (final concentration: 1 mg protein/mL) and of a NADPH‐regenerating system (final concentrations: 2 mM NADP^+, 10 mM glucose‐6‐phosphate, 0.4 U mL^−1 glucose‐6‐phosphate dehydrogenase, 5 mM MgCl2) in a 10 mM Phosphate Buffered Saline (PBS) solution, pH 7.4, at 37 °C. Compound was added after a 10 min pre‐incubation at 37 °C and. at stated time points, depending on compound kinetics, sample aliquots were withdrawn, metabolic reaction was quenched by acetonitrile addition (1 : 2), and after a centrifugation step (9000 g, 10 min, 4 °C) the supernatant was analyzed by HPLC‐UV‐VIS.
(§5) Apparent half‐lives (t1/2 in min) for the metabolic clearance of compounds were calculated from the pseudo first‐order rate constants (k) obtained by linear regression of the log chromatographic peak area versus time plots and are reported as means of three experiments±standard deviation. Intrinsic clearance (CLi) values of the compounds were calculated using the following equation: CLi (μL×min^−1×mg protein^−1)=k×V where V (μL×mg protein^−1)=incubation volume/mg protein added.
(§6) Pooled rat and human liver microsomes (20 mg/mL) were supplied by BD Biosciences (BD Biosciences, Woburn, MA, USA). Acetonitrile and methanol were HPLC grade and were supplied by Sigma‐Aldrich (Sigma‐Aldrich srl, Milan, Italy). Water was freshly bidistilled before use. All other reagents were purchased in the highest purity available.
(§7) PeakSimple 2.83 software was employed for data acquisition and HPLC peak integration. HPLC columns were a RP‐C18 Supelco Discovery (Supelco, Bellefonte, PA, USA), 5 μm, 150×4.6 mm i.d. for all compounds except 13, and a Phenomenex Gemini, 5 μm, 150×4.6 mm i.d. for compound 13 (Phenomenex). Elution conditions were optimized for each compound at a flow rate of 1 mL min^−1 employing mobile phases consisting of water and acetonitrile at different percentages, while UV detection was set at λ = 254 nm. For compound 13, the mobile phase consisted of a 10 mM ammonium acetate buffer pH 7.0 and methanol and the UV detection was set at λ = 281 nm.

[5] = Metabolic stability in human liver microsomes; assay type: in vitro ADME; details: for CLi Human LM (intrinsic clearance) / half-life at 5 μM: human liver microsomes 1 mg protein/mL, 5 μM compound, mean±SD; for CLi Human LM (intrinsic clearance): 37 °C; for half-life at 5 μM: NADPH-regenerating system, pH 7.4, 37 °C, read-out: t 1/2 Human LM
Method: as §4, §5, §6, §7

[6] = Experimental lipophilicity, shake-flask n-octanol/water; assay type: physicochemical; details: n-octanol/50 mM MOPS buffer pH 7.4, 25±1 °C, mean±SD of three, read-out: Log D oct,7.4
Method: Chosen buffer was 50 mM zwitterionic MOPS (3‐morpholinopropanesulfonic acid), pH 7.4 to avoid ionic couple partitioning, with ionic strength adjusted to 0.15 M by KCl addition. Compounds, after partitioning overnight, and dilution of both phases with methanol, were dosed in the HPLC‐UV system, as detailed below. Reported log D oct,7.4 values are the mean of three measurements±standard deviation.
HPLC columns were a RP‐C18 Supelco Discovery (Supelco, Bellefonte, PA, USA), 5 μm, 150×4.6 mm i.d. for all compounds except 13, and a Phenomenex Gemini, 5 μm, 150×4.6 mm i.d. for compound 13 (Phenomenex). Elution conditions were optimized for each compound at a flow rate of 1 mL min^−1 employing mobile phases consisting of water and acetonitrile at different percentages, while UV detection was set at λ = 254 nm. For compound 13, the mobile phase consisted of a 10 mM ammonium acetate buffer pH 7.0 and methanol and the UV detection was set at λ = 281 nm.

human MT1 receptors [7] = target: T1, human MT1 receptors; assay: Agonist activity at MT1, cell impedance assay (cellular dielectric spectroscopy); assay type: cell-based; details: for EC50: cell impedance assay, CHO cells expressing human MT1, mean±SD, triplicate; for Emax: read-out: MT1 E max
Method: (§1) The in vitro pharmacology experiments were conducted at Cerep (Celle‐Lévescault, France) following radioligand binding and cellular functional assays developed elsewhere.[60, 61, 62]
(§2) To define the functional activity of the new compounds, cellular functional assays were performed on CHO cells stably expressing human MT1 or MT2 receptors. Agonist activity at MT1 receptors was evaluated using a cell impedance assay measured by cellular dielectric spectroscopy,[62] and at MT2 receptors with an cAMP assay, measured by a fluorometric method.[61] The EC50 values were determined by non‐linear regression analysis of the concentration‐response curves. Experiments were performed in triplicate.

human MT2 receptors [8] = target: T2, human MT2 receptors; assay: Agonist activity at MT2, cAMP assay; assay type: cell-based; details: for EC50: cAMP assay, CHO cells expressing human MT2, mean±SD, triplicate; for functional profile (intrinsic activity): cAMP functional assay at MT2 (with MT1 cell impedance data of Table 3); for Emax: read-out: MT2 E max
Method: as §1, §2

[9] = In vivo pharmacokinetic study in rat plasma; design: species or system Sprague‐Dawley rats; details: for Vd / bioavailability / AUC / Cmax / clearance / half-life: male; for Vd / bioavailability: plasma; for Vd / bioavailability / F (oral bioavailability): rat; for Vd: read-out: V ss; for bioavailability / F (oral bioavailability): PO 40 mg kg^−1 vs IV 5 mg kg^−1; for bioavailability: read-out: F (oral bioavailability); for AUC / Cmax / clearance / half-life: rat plasma
Method: To evaluate the in vivo behavior of the two melatonergic ligands 14 and 19, a preliminary pharmacokinetic (PK) study was carried out in male Sprague‐Dawley rats. The compounds were administered as intravenous bolus (IV) or by oral gavage (PO) at doses of 5 or 40 mg kg^−1, respectively. Quantitative analysis was carried out by UPLC/MS/MS and the plasma concentration profiles are shown in Figure 3, while the main PK parameters are listed in Table 4.
The in vivo pharmacokinetic experiments were conducted at NiKem Research (Baranzate – Milan – Italy). PK studies were performed using Sprague‐Dawley CD (albino) male rats (7–9 weeks‐old, weight 160–200 grams, Charles River Lab. Italia, Calco). Animals were housed under standard conditions and had free access to water and standard laboratory rodent diet. Care and husbandry of animals were in conformity with the institutional guidelines, in compliance with national and international laws and policies (EEC Council Directive 86/609, OJL 358 m, 1, Dec. 122, 1987; NIH Guide for the care and Use of Laboratory Animals, NIH Publication No. 86–23, 1985). The compounds were dissolved in water containing 3 % DMSO and 20 % Encapsin (and a stechiometric amount of HCl for 14) at a concentration of 2.5 mg mL^−1 for the IV (bolus) dose, or in water containing 5 % DMSO and 10 % encapsin (and a stechiometric amount of HCl for 14) at a concentration of 4 mg mL^−1 for PO (gavage) dose. Rats were randomly assigned to four treatment groups (n=3) and received a single IV bolus dose (5 mg kg^−1) or a single oral administration (40 mg kg^−1) through oral gavage of compound 14 or 19. Serial blood samples ([…]) were collected from caudal vein at 5, 30, 60, 120, 480 and 1440 min after IV injection, or at 15, 30, 60, 120, 480 and 1440 min after PO administration. Blood samples were collected in heparinized eppendorfs (Heparin Vister 5000 U.I./mL_Marvecs Pharma), gently mixed and placed on ice; then blood was centrifuged (3500×g, at 4 °C for 15 min), the plasma was collected and immediately frozen at −80 °C until submission to UPLC/MS/MS analysis. For the sample preparation, 100 μL of plasma spiked with 5 μL of internal standard (I.S.; 19 for compound 14 and 14 for compound 19; 2.5 μg mL^−1;) were added to a SW96 deep well plate (Waters) containing 300 μL of acetonitrile. The plate was shaken for 10 min and then centrifuged at 3000 rpm for 15 min. UPLC/MS/MS analyses were performed on an Acquity UPLC, coupled with a sample organizer and interfaced with a triple quadrupole Premiere XE (Waters, Milford, USA). LC runs (inj. vol. 5 μL) were carried out at 50 °C on Acquity BEH C18 columns (1.7 μm, 2.1×50 mm) at a flow rate of 0.45 mL min^−1. Mobile phases consisted of a phase A (water) and a phase B (0.1 % formic acid in acetonitrile). The column was conditioned with 2 % phase B for 0.2 min, then brought to 100 % phase B within 0.6 min and maintained at these conditions for 1.1 min. Analyses were carried out using a positive electrospray ionization [ESI(+)] interface in multiple reaction monitoring (MRM) mode. Capillary 3.5 Kv; extractor 3 V; source T 140 °C, desolvation T 450 °C. Transitions: for compound 14 Q1/Q3 315.2/86, CV 14, CE16+315.2/238 CV 14, CE19; for I.S. (compound 19): 301.1/86 CV 14 CE16; LLOQ: 1 ng ml^−1. Transitions: for compound 19 Q1/Q3: 301.1/86CV 14 CE16; for I.S. (compound 14) 315.2/238CV 14, CE19; LLOQ: 1 ng mL^−1. Pharmacokinetic analysis was performed by non‐compartmental analysis (NCA) using the WinNonlin 5.1 software (Pharsight, Mountain View, CA, USA. Absolute oral bioavailability (F) was calculated by linear trapezoidal rule using the relationship: F=[doseIV×AUCoral o‐∞/doseoral×AUCIV o‐∞]×100.

[10] = buffer pH 1.0, simulated gastric fluid, pH 1.0 buffer, read-out: Solubility pH 1.0
[11] = buffer pH 7.4, aqueous buffer, pH 7.4 buffer, read-out: Solubility pH 7.4
[12] = Sprague-Dawley CD, IV bolus 5 mg kg^−1
[13] = Sprague-Dawley CD, PO gavage 40 mg kg^−1
[14] = Sprague-Dawley, IV bolus 5 mg kg^−1
[15] = Sprague-Dawley, PO gavage 40 mg kg^−1

COc1ccc(Br)c(N(C)CCNC(C)=O)c1 [Compound 19, N ‐{2‐[(2‐Bromo‐5‐methoxyphenyl)methylamino]ethyl}acetamide]
Ki (human MT1 receptors [1]): 18 ± 0.7 nM
Ki (human MT2 receptors [2]): 2.4 ± 0.1 nM
solubility [3, 10]: > 1000 µg/mL
solubility [3, 11]: 823 ± 34.7 µg/mL (≈ 2730 µM)
CLi Rat LM (intrinsic clearance) [4]: 39.6±3.1 μL min^−1 mg prot^−1
half-life at 5 μM [4]: 17.6 ± 1.5 min
CLi Human LM (intrinsic clearance) [5]: 8.9±1.4 μL min^−1 mg prot^−1
half-life at 5 μM [5]: 78.5 ± 12.2 min
logD ([6]; n-octanol/water (50 mM MOPS buffer)): 1.85 ± 0.01
EC50 (human MT1 receptors [7]): 4.4 ± 0.2 nM
Emax (human MT1 receptors [7]): 94 ± 4%
EC50 (human MT2 receptors [8]): 0.83 ± 0.05 nM
functional profile (intrinsic activity) (human MT2 receptors [8]): full agonist
Emax (human MT2 receptors [8]): 93 ± 2%
Vd [9, 12]: 0.7 ± 0.1 L/kg
bioavailability ([9]; Sprague-Dawley CD): 3.6%
AUC [9, 12]: 1100 ng·h/mL
Cmax [9, 12]: 2970 ± 384 ng/mL
clearance [9, 12]: 76.4 ± 8.8 mL/min/kg
half-life [9, 12]: 13.5 ± 0.3 min
AUC [9, 13]: 319 ng·h/mL
Cmax [9, 13]: 456 ± 178 ng/mL
half-life [9, 13]: 26.2 ± 0.9 min
F (oral bioavailability) [9]: moderate

COc1cccc(N(CCNC(C)=O)c2ccsc2)c1 [Compound 11, N ‐{2‐[(3‐Methoxyphenyl)(thiophen‐3‐yl)amino]ethyl}acetamide]
Ki (human MT1 receptors [1]): 0.7 ± 0.1 nM
Ki (human MT2 receptors [2]): 0.07 ± 0.02 nM
solubility [3, 10]: 162 ± 4.4 µg/mL (≈ 556 µM)
solubility [3, 11]: 92.5 ± 3.5 µg/mL (≈ 319 µM)
CLi Rat LM (intrinsic clearance) [4]: 175.4±22.3 μL min^−1 mg prot^−1
half-life at 5 μM [4]: 4 ± 0.5 min
CLi Human LM (intrinsic clearance) [5]: 17.5±2.4 μL min^−1 mg prot^−1
half-life at 5 μM [5]: 40.1 ± 5.3 min
logD ([6]; n-octanol/water (MOPS buffer)): 2.74 ± 0.01
melting point: 76 to 77 °C

COc1cccc(N(CCNC(C)=O)c2cccc(CO)c2)c1 [Compound 14, N ‐{2‐[(3‐Hydroxymethylphenyl)(3‐methoxyphenyl)amino]ethyl} acetamide]
Ki (human MT1 receptors [1]): > 100 nM
Ki (human MT2 receptors [2]): 3.5 ± 0.05 nM
solubility [3, 10]: > 1000 µg/mL
solubility [3, 11]: > 1000 µg/mL
CLi Rat LM (intrinsic clearance) [4]: 241.4±28.5 μL min^−1 mg prot^−1
half-life at 5 μM [4]: 2.9 ± 0.3 min
increase of rat microsomal stability compared to UCM765 ([4]; rat liver microsomes, versus UCM765): approximately 1.5 fold
CLi Human LM (intrinsic clearance) [5]: 10.8±1.2 μL min^−1 mg prot^−1
half-life at 5 μM [5]: 64.9 ± 6.9 min
increase of human microsomal stability compared to UCM765 ([5]; human liver microsomes, versus UCM765): approximately 1.5 fold
logD ([6]; n-octanol/water (MOPS buffer)): 2.04 ± 0.01
EC50 (human MT1 receptors [7]): 53 ± 0.5 nM
Emax (human MT1 receptors [7]): 32 ± 3%
EC50 (human MT2 receptors [8]): 6.8 ± 0.3 nM
functional profile (intrinsic activity) (human MT2 receptors [8]): MT2‐selective partial agonist
Emax (human MT2 receptors [8]): 71 ± 2%
Vd [9, 14]: 0.9 ± 0.2 L/kg
bioavailability ([9]; Sprague-Dawley): 0.5%
AUC [9, 14]: 1110 ng·h/mL
Cmax [9, 14]: 2760 ± 479 ng/mL
clearance [9, 14]: 76.2 ± 10.3 mL/min/kg
half-life [9, 14]: 11.5 ± 1 min
AUC [9, 15]: 43.8 ng·h/mL
Cmax [9, 15]: 75.6 ± 39.7 ng/mL
half-life [9, 15]: 19.8 ± 1.9 min
F (oral bioavailability) [9]: very low

CC(=O)NCCN(c1ccc(F)cc1)c1cccc(C(F)F)c1 [Compound 10, N ‐(2‐{[3‐(Difluoromethyl)phenyl](4‐fluorophenyl)amino}ethyl)acetamide]
Ki (human MT1 receptors [1]): > 100 nM
Ki (human MT2 receptors [2]): 35 ± 0.35 nM
solubility [3, 10]: 54.9 ± 1.1 µg/mL (≈ 170 µM)
solubility [3, 11]: 40.6 ± 0.1 µg/mL (≈ 126 µM)
CLi Rat LM (intrinsic clearance) [4]: 58.0±8.2 μL min^−1 mg prot^−1
half-life at 5 μM [4]: 12.2 ± 1.5 min
CLi Human LM (intrinsic clearance) [5]: 12.8±1.3 μL min^−1 mg prot^−1
half-life at 5 μM [5]: 55.4 ± 6.8 min
logD ([6]; n-octanol/water (MOPS buffer)): 3.45 ± 0.02
melting point: 76 to 77 °C

CCCNC(=O)NCCN(c1ccccc1)c1cccc(OC)c1 [Compound 6 c, 1‐{2‐[(3‐Methoxyphenyl)phenylamino]ethyl}‐3‐propylurea]
Ki (human MT1 receptors [1]): 57 ± 0.1 nM
Ki (human MT2 receptors [2]): 1.7 ± 0.08 nM
solubility [3, 10]: 17.7 ± 0.9 µg/mL (≈ 54.1 µM)
solubility [3, 11]: 14.3 ± 0.1 µg/mL (≈ 43.7 µM)
CLi Rat LM (intrinsic clearance) [4]: 218.4±21.2 μL min^−1 mg prot^−1
half-life at 5 μM [4]: 3.2 ± 0.3 min
CLi Human LM (intrinsic clearance) [5]: 95.7±14.7 μL min^−1 mg prot^−1
half-life at 5 μM [5]: 7.4 ± 1.2 min
logD ([6]; n-octanol/water (MOPS buffer)): 3.91 ± 0.02
melting point: 63 to 65 °C
